Literature values as cited in patent US20080166406A1, “Rapidly Disintegrating Dosage Form Comprising Magnesium Carbonate Heavy” (priority 2005, published 2008).

Settings: water, neutral pH, acidic pH; general statement

For `Cc1cc2c(s1)Nc1ccccc1N=C2N1CCN(C)CC1` [Olanzapine], the Solubility is listed as “insoluble in water and neutral pH but more soluble at acidic pH”.
